Measurements taken from patent US20200239587A1, “SENSITIZATION OF TUMORS TO THERAPIES THROUGH ENDOGLIN ANTAGONISM” (Cedars-Sinai Medical Center, priority 2016, published 2020).
“Also recorded” adds a separate entry of the source.

Legend:
[1] = test system: SFRP1 expression in human NAF and CAF; test: SFRP1 mRNA expression in NAF and CAF treated with TRC105; format: cell-based; details: vs IgG
Excerpt: See also FIG. 15. […] Immunohistochemical localization of CD105 and SFRP1 in benign or PCa tissues are found in blood vessels (v), epithelia (e), and stroma (s), n=4. Scale bar represents 100 μm. FIG. 12E) Epithelial proliferation of human CW22Rv1, in 3D co-cultures with mouse prostatic fibroblasts, were co-stained for EpCam and Ki67 for FACS analysis. […] See also FIG. 16. […] Error bars are mean+/−SD and **p<0.01, ****p<0.0001, compared to control unless otherwise indicated.
CW22Rv1, C42B, and PC3 cells from ATCC were expanded as directed. Prostatectomy specimens from Cedars-Sinai Medical Center or the Greater Los Angeles Veterans Affairs were cultured to generate NAF and CAF cells using the same method, as C57BL/6 mouse wild-type prostatic fibroblasts were grown as previously reported (Franco et al., 2011, Cancer research 71, 1272-1281; Kiskowski et al., 2011, Cancer research 68, 4709-4718). TRC105 and M1043 were provided by TRACON Pharmaceuticals, Inc. (San Diego, Calif.). […]
Total RNA was extracted using the RNeasy kit (Qiagen). […] Quantitative RT-PCR was performed with 5 replicates using the Step One Real-Time PCR system (Applied Biosystems). […] For RNA-sequencing, Ion Proton AmpliSeq Transcriptome RNA Sequencing was performed achieving an average of 3M reads. We mapped an average of 88% of the reads to the human genome with Torrent Suite version 4.4.2.

[2] = test system: C4-2B; test: Clonogenic survival assay with radiation; format: cell-based, human; details: 1 μg/ml TRC105 vs IgG, 0 to 6 Gy; p<0.001
Protocol: (§1) FIG. 18A) Cell surface CD105 expression was measured in PC3, C42b, and 22Rv1 72 hours after 4 Gy irradiation treatment by FACS analysis and compared to cells not irradiated (control). FIG. 18B) Cell surface CD105 expression was measured in cell lines following a dose range of irradiation (0, 2, 4, or 6 Gy). FIG. 18C) The durability of cell surface CD105 expression in 22Rv1 was determined 0, 0.5, 4, 8, 24, 48, 72, 120, and 168 hours following 4 Gy irradiation. CD105 cell surface expression fold change was normalized to levels expressed prior to irradiation. FIG. 18D) Western blot for phosphorylated-Smad1/5 was measured in CW22Rv1 cells in the presence or absence of serum starvation and treatment with 50 ng/ml BMP4 or 1 μg/ml TRC105. β-actin expression served as the loading control. FIG. 18E) Annexin-V expression was measured in 22Rv1 cells by FACS analysis 5 days following 4 Gy irradiation in the presence and absence of TRC105. FIG. 18F) Clonogenic assay was measured 10 days following irradiation of CW22Rv1 and C42b cells in a dose range of 0 to 6 Gy in the presence of 1 μg/ml IgG or TRC105. Data are reported as a mean+/−S.D. (**p<0.01, ***p<0.001).

[3] = test system: CW22Rv1; test: Clonogenic survival assay with radiation; format: cell-based, human; details: 1 μg/ml TRC105 vs IgG, 0 to 6 Gy; p<0.001
Protocol: as §1

[4] = test system: CW22Rv1 cells; test: Cell cycle analysis after irradiation; format: cell-based, human
Protocol: Within each group, the left column depicts G1, middle column depicts S and the right column depicts G2. […] All studies shown are 5 days after irradiation and/or 5 days of treatment with TRC105.
22Rv1 were pre-treated with 1 μg/ml TRC105 24 hours prior to irradiation with 4 Gy. FIG. 22A) γ-H2AX or p53 bp were imunolocalized at 4, 24, and 48 hours post radiation. Foci per nuclei were quantified (n=100). FIG. 22B) Comet assay was performed 30 minutes and 24 hours following irradiation. The tail moment was quantified (n=50). FIG. 22C) Cell cycle analysis was performed on 22Rv1 at 0, 4, 8, and 24 hours post radiation in the presence of IgG or TRC105 (n=3) in 3 independent experiments. (***p<0.001, ****p<0.0001).

[5] = test system: PGC1α in 22Rv1 cells; test: PGC1α expression and sub-cellular localization; format: cell-based, human; details: 4Gy
Protocol: (§2) FIGS. 24A-24D depict that PGC1α and mitochondrial biogenesis are regulated by BMP/CD105. 22Rv1 cells were incubated with IgG or TRC105 with or without 4 Gy irradiation. All measurements were made 72 hours post radiation. FIG. 24A) Western blot for whole cell lysate, nuclear and cytoplasmic fractions were independently analyzed for PGC1α expression. Loading controls included β-actin (whole cell), lamin B (nuclear marker), and Rho A (cytoplasm marker). FIG. 24B) Immunofluorescent localization of PGC1α was visualized with DAPI nuclear counterstain. FIG. 24C) mRNA expression of PGC1α target genes, NRF1, MTFA, and CPT1C was measured. mRNA expression was normalized to GAPDH and untreated IgG 0 Gy. FIG. 24D) Mitochondrial DNA (mtDNA) was measured from total DNA extracts and normalized to nuclear DNA and compared to untreated IgG 0 Gy. Data are reported as means+/−S.D. of 3 independent experiments. (***p<0.001, ****p<0.0001).

[6] = test system: mtDNA in 22Rv1 cells; test: Mitochondrial DNA quantitation; format: cell-based, human; details: radiation in the presence of TRC105; p<0.0001
Protocol: as §2

[7] = test system: MTCO1 of complex-IV and NDUFB8 of complex-I in 22Rv1; test: Western blot of mitochondrial electron transport chain proteins; format: cell-based, human; details: 4Gy+TRC105 vs radiation alone, 72 hours
Protocol: Lysate was collected 72 hours post irradiation for Western blot. FIG. 25A) Blots were probed for a cocktail of mitochondrial complex proteins. Protein levels of MTCO1 of complex-IV and NDUFB8 of complex-I were normalized to ponceau. […] Within each group, the first/left column depicts 0Gy+IgG, the second column depicts 0Gy+TRC105, the third column depicts 4Gy+IgG and the last/right column depicts 4Gy+TRC105. (**p<0.01, ***p<0.001)

[8] = test system: PC3 cells; test: Cell death assay with docetaxel and TRC105; format: cell-based, human; details: different concentrations of docetaxel and TRC105
Protocol: The PC3 cells used in the cell death assay were treated with different concentrations of docetaxel in the presence of different concentrations of TRC105.

[9] = test system: prostatic epithelia; test: Cancer stem cell markers and sphere-forming units; format: cell-based; details: antagonizing endoglin

## TRC105: partially humanized monoclonal antibody that blocks BMP signaling; human-specific CD105 (endoglin) neutralizing antibody from Tracon Pharmaceuticals
[1]
  SFRP1 expression in NAF: no effect
[1]; p<0.0001
  SFRP1 expression in CAF: significantly down regulated
[2]
  radiation sensitivity, clonogenic survival: sensitized prostate cancer cells to radiation
[3]
  radiation sensitivity, clonogenic survival: sensitized prostate cancer cells to radiation
[4]; 4 Gy plus TRC105, 0-24 hours
  cell cycle distribution: G2 cell cycle arrest that did not resolve by 24 hours
[4]; radiation combined with TRC105, 5 days
  cell cycle, G2-phase: chronic up regulation of the G2-phase
[5]; 72 hours
  radiation-induced nuclear translocation of PGC1α: prevented radiation-induced nuclear translocation of PGC1α
[5]; IgG or TRC105, 72 hours
  PGC1α expression, whole cell lysate: no effect on PGC1α expression
[6]
  mtDNA: dramatic down regulation of mtDNA
[7]
  mitochondrial electron transport chain proteins MTCO1 and NDUFB8: down-regulation of CIV-MTCO1 and CI-NDUF88; also recorded: significantly lower
[8]
  sensitization to docetaxel, cell death: taxane sensitizer
[9]
  cancer stem cell markers (CD44, ALDH, Oct4, Sox) and sphere-forming units: down regulated
